{"source": "patent US20080051466A1", "about": "“Isoalpha acid based protein kinase modulation cancer treatment” (Metaproteomics, LLC, priority 2006, published 2008)", "experiment_in_all_cases": "KinaseProfiler Assay", "format_in_all_cases": "biochemical", "key": {"PI3K gamma": {"target": "PI3K gamma (Homo sapiens, UniProt P48736)", "sequence (P48736 whole entry)": "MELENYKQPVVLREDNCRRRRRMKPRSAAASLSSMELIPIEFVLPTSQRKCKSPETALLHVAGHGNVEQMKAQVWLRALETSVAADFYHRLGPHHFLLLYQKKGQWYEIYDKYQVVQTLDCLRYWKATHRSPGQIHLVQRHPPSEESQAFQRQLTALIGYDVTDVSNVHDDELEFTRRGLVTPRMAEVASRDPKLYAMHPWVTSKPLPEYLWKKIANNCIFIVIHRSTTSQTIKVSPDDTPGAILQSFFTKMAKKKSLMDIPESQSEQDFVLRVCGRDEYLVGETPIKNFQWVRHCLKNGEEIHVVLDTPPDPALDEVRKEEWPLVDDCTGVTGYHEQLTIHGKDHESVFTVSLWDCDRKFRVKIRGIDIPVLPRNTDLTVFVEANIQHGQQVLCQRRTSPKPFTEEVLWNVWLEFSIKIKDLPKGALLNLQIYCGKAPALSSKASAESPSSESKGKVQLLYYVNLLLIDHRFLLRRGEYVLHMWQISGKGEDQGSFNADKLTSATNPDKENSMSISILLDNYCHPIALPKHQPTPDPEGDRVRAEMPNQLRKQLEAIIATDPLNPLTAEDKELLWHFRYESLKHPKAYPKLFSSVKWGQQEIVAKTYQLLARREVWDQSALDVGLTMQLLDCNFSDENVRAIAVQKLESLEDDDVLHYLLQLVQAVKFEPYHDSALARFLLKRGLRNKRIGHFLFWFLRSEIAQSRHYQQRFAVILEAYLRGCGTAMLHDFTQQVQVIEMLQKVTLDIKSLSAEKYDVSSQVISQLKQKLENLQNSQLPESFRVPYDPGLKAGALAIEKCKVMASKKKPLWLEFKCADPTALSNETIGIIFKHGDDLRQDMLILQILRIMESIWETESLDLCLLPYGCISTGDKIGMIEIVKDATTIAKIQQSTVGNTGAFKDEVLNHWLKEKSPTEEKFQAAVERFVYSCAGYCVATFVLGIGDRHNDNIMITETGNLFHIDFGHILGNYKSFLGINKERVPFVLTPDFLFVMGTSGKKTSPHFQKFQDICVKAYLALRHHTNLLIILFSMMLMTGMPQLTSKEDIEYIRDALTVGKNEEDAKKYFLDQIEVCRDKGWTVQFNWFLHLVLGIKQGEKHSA", "conditions": "50 μg/ml"}, "PAK5": {"target": "PAK5 (Homo sapiens, UniProt Q9P286)", "sequence (Q9P286 whole entry)": "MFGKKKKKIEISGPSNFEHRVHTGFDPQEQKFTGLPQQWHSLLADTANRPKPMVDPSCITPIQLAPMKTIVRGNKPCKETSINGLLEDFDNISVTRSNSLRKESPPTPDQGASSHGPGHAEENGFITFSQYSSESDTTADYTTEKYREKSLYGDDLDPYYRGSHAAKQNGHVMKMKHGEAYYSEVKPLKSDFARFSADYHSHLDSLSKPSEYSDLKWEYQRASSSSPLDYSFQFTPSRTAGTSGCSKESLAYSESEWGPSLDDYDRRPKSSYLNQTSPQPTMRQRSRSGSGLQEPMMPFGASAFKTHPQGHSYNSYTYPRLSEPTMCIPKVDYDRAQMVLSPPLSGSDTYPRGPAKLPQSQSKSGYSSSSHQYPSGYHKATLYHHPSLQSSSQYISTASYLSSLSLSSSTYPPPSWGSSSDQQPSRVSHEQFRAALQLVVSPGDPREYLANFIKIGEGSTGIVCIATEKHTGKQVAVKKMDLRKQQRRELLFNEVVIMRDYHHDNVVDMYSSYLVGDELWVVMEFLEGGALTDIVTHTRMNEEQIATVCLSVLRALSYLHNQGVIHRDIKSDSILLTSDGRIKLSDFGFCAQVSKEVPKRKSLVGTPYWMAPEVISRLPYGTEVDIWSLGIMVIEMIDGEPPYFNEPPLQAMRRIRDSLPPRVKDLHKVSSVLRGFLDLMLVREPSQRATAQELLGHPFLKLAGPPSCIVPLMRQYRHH", "conditions": "read-out: PAK5, % of Control"}, "PhKγ2": {"target": "T1, PhKγ2 (Homo sapiens, UniProt P15735)", "T1 sequence (P15735 1-406)": "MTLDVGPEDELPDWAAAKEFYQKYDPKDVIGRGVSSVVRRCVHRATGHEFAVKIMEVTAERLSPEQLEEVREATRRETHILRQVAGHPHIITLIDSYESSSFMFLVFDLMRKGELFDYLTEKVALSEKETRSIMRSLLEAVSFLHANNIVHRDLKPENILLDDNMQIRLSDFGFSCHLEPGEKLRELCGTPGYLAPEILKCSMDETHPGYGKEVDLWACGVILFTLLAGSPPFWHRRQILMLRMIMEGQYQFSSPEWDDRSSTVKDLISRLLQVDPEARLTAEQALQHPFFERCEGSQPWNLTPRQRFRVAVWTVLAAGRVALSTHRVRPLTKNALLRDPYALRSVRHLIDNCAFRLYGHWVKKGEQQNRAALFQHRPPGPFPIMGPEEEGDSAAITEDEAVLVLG", "conditions": "read-out: PhKγ2, % of Control"}, "IKKβ": {"target": "T2, IKKβ (Homo sapiens, UniProt O14920)", "T2 sequence (O14920 1-756)": "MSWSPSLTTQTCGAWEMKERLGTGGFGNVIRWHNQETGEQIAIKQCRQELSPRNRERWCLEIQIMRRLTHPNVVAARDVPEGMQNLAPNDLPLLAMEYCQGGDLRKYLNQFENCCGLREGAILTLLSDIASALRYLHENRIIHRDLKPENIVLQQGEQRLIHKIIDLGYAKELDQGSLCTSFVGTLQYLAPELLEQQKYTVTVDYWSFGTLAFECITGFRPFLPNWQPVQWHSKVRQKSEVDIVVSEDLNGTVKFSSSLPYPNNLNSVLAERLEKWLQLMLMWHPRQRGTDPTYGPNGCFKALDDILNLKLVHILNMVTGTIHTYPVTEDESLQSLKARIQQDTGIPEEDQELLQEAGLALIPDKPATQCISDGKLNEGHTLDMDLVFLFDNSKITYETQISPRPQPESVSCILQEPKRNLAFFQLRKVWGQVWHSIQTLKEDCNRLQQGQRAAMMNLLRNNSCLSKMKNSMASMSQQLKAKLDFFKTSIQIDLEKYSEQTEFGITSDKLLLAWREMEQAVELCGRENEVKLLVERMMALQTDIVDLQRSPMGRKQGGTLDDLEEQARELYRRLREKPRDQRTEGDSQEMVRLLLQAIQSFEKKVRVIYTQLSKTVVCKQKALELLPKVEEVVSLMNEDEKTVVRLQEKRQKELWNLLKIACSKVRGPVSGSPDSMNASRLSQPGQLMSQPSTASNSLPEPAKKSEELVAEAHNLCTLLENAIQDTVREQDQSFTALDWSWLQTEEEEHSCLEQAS", "conditions": "read-out: IKKβ, % of Control"}, "EphA2": {"target": "EphA2 (Homo sapiens, UniProt P29317)", "sequence (P29317 24-976)": "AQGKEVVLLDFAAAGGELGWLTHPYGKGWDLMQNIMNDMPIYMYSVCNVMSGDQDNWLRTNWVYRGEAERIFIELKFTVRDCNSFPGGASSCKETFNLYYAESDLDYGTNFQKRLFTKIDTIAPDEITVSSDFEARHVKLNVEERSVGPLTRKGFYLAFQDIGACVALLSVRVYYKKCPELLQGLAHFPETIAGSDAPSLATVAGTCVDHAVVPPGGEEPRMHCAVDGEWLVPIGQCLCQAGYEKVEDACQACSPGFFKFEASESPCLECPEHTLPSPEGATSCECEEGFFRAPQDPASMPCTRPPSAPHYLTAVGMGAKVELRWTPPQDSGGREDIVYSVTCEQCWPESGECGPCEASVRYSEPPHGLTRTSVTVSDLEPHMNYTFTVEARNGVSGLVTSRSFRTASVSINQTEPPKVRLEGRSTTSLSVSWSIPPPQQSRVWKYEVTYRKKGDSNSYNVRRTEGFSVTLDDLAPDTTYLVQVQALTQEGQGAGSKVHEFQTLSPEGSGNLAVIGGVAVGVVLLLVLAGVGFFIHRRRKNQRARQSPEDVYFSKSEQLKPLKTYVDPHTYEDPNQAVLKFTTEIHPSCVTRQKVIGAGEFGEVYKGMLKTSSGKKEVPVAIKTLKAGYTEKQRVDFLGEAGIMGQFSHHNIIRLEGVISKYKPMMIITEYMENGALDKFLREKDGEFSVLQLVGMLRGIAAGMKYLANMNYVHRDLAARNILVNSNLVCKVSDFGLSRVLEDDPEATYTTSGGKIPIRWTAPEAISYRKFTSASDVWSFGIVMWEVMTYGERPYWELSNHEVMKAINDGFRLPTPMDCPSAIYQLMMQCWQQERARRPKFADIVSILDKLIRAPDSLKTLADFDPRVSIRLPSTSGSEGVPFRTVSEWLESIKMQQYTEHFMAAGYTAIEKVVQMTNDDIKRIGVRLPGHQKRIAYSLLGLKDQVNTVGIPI", "conditions": "read-out: EphA2, % of Control"}, "EphB1": {"target": "T3, EphB1 (Homo sapiens, UniProt P54762)", "T3 sequence (P54762 18-984)": "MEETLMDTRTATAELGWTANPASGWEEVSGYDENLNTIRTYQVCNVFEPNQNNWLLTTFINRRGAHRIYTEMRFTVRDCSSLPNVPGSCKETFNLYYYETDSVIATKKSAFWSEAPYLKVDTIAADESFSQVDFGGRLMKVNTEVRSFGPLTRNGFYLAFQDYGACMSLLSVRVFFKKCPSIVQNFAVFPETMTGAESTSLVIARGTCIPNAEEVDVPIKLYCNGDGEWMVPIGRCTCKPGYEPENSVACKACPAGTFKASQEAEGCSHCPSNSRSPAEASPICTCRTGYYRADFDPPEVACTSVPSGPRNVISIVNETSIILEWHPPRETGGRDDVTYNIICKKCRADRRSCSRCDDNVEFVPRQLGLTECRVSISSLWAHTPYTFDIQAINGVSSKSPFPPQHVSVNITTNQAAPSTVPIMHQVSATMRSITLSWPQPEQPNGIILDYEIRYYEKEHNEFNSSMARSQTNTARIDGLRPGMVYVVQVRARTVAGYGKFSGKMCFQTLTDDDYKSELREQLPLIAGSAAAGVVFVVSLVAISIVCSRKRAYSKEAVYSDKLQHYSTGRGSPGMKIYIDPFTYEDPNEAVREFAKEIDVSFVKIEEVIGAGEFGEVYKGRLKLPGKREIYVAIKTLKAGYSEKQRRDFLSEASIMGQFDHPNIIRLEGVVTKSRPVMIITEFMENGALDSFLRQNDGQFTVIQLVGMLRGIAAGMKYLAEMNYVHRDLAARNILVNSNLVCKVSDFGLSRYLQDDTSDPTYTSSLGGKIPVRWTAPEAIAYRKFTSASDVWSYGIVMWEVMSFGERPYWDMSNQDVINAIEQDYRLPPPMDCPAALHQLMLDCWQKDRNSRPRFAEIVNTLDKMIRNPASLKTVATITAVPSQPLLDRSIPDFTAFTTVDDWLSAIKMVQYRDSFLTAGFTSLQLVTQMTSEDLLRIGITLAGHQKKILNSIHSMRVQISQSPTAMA", "conditions": "read-out: EphB1, % of Control"}, "PKBβ": {"target": "PKBβ (Homo sapiens, UniProt P31751)", "sequence (P31751 whole entry)": "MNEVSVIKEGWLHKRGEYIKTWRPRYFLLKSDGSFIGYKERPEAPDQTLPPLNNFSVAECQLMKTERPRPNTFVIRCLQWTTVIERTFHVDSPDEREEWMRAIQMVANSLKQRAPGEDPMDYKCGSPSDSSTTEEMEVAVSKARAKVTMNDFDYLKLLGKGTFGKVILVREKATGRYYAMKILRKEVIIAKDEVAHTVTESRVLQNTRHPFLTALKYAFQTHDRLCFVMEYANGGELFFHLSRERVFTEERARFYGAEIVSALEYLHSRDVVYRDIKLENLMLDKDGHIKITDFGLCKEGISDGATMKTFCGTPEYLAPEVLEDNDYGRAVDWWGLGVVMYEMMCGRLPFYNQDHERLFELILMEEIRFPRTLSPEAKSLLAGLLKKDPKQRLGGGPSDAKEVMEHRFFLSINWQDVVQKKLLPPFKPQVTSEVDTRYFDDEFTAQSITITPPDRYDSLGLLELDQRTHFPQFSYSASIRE", "conditions": "read-out: PKBβ, % of Control"}, "CDK2/cyclinE": {"target": "CDK2/cyclinE (Homo sapiens, UniProt P24941)", "conditions": "read-out: CDK2/cyclinE, % of Control"}}}
{"smiles": "COc1cc(O)c(CC=C(C)C)c(O)c1C(=O)/C=C/c1ccc(O)cc1", "note": "[Xanthohumol, xanthohumol]", "values": [{"measurement": "inhibition of PI3K-γ activity", "setting": "PI3K gamma", "value": "more inhibitory to PI3K-γ than to PI3K-β or PI3K-δ"}, {"measurement": "remaining activity at 1 µg/mL", "setting": "PAK5; 1 ug/ml", "value": 106, "unit": "%"}, {"measurement": "remaining activity at 5 µg/mL", "setting": "PAK5; 5 ug/ml", "value": 99, "unit": "%"}, {"measurement": "remaining activity at 25 µg/mL", "setting": "PAK5; 25 ug/ml", "value": 42, "unit": "%"}, {"measurement": "remaining activity at 50 µg/mL", "setting": "PAK5; 50 ug/ml", "value": 5, "unit": "%"}, {"measurement": "remaining activity at 1 µg/mL", "setting": "PhKγ2; 1 ug/ml", "value": 106, "unit": "%"}, {"measurement": "remaining activity at 5 µg/mL", "setting": "PhKγ2; 5 ug/ml", "value": 60, "unit": "%"}, {"measurement": "remaining activity at 25 µg/mL", "setting": "PhKγ2; 25 ug/ml", "value": 11, "unit": "%"}, {"measurement": "remaining activity at 50 µg/mL", "setting": "PhKγ2; 50 ug/ml", "value": 5, "unit": "%"}, {"measurement": "remaining activity at 1 µg/mL", "setting": "IKKβ; 1 ug/ml", "value": 145, "unit": "%"}, {"measurement": "remaining activity at 5 µg/mL", "setting": "IKKβ; 5 ug/ml", "value": 118, "unit": "%"}, {"measurement": "remaining activity at 25 µg/mL", "setting": "IKKβ; 25 ug/ml", "value": 61, "unit": "%"}, {"measurement": "remaining activity at 50 µg/mL", "setting": "IKKβ; 50 ug/ml", "value": 44, "unit": "%"}, {"measurement": "remaining activity at 1 µg/mL", "setting": "EphA2; 1 ug/ml", "value": 124, "unit": "%"}, {"measurement": "remaining activity at 50 µg/mL", "setting": "EphA2; 50 ug/ml", "value": 52, "unit": "%"}, {"measurement": "remaining activity at 1 µg/mL", "setting": "EphB1; 1 ug/ml", "value": 92, "unit": "%"}, {"measurement": "remaining activity at 25 µg/mL", "setting": "EphB1; 25 ug/ml", "value": 175, "unit": "%"}, {"measurement": "remaining activity at 50 µg/mL", "setting": "EphB1; 50 ug/ml", "value": 161, "unit": "%"}, {"measurement": "remaining activity at 1 µg/mL", "setting": "PKBβ; 1 ug/ml", "value": 146, "unit": "%"}, {"measurement": "remaining activity at 5 µg/mL", "setting": "PKBβ; 5 ug/ml", "value": 102, "unit": "%"}, {"measurement": "remaining activity at 25 µg/mL", "setting": "PKBβ; 25 ug/ml", "value": 1, "unit": "%"}, {"measurement": "remaining activity at 50 µg/mL", "setting": "PKBβ; 50 ug/ml", "value": 8, "unit": "%"}, {"measurement": "remaining activity at 1 µg/mL", "setting": "CDK2/cyclinE; 1 ug/ml", "value": 82, "unit": "%"}, {"measurement": "remaining activity at 5 µg/mL", "setting": "CDK2/cyclinE; 5 ug/ml", "value": 86, "unit": "%"}, {"measurement": "remaining activity at 25 µg/mL", "setting": "CDK2/cyclinE; 25 ug/ml", "value": 18, "unit": "%"}]}
